Values belong to the compound of their own block, whether it stands above or below them.
Key:
[1] = cited from earlier work
[2] = Solubility of RWJ-416457 in hydroxypropyl-β-cyclodextrin and sulfobutylether-β-cyclodextrin solutions (HPLC); type: physicochemical
Description: Various liposomal formulations were prepared to perform supporting and illustrative studies. […] The solubility of the drug in the cyclodextrin solutions was determined.
The solubility of an antimicrobial oxazolidinone drug identified as RWJ-416457 in 40 w/v % hydroxylpropyl-β-cyclodextrin and in 20 w/v % sulfobutylether-β-cyclodextrin under various conditions of pH, temperature, and incubation time was determined as follows. About 15 mgs of drug was added to 5 mL of each cyclodextrin solution followed by incubation under one of three conditions: (1) with stirring at 45° C. for 2 hours; (2) with stirring at 45° C. for 2 hours followed by stirring at room temperature (25° C.) for 3 days; or (3) with stirring at room temperature (25° C.) for 3 days. After incubation, any non-solubilized drug crystals were removed either by centrifugation using a bench top centrifuge at 3000 rpm or by filtration using a hand-held syringe with a filter with 0.2 μm pore size. The drug concentration of the supernatant or the filtrate was then determined by high performance liquid chromatography (HPLC).

[3] = Drug concentration of filtered drug/cyclodextrin hydration solutions (HPLC); type: physicochemical; conditions: for drug concentration of filtered cyclodextrin solution: 10 mM histidine, 15 mM NaCl, pH 6.8, incubated 45° C. for 2 hours; for final drug concentration assayed by HPLC: 50 w/v % hydroxypropyl-β-cyclodextrin
Description: A similar solution containing 30% cyclodextrin was prepared by dissolving 30 g of hydroxypropyl-β-cyclodextrin in a 100 mL of water. The solution also contained 10 mM histidine and 15 mM NaCl. The final osmolality was 451 mOsm/kg (Wescor Osmometer) and the pH was 6.8. Drug (RWJ-425457) was added to the cyclodextrin solution, incubated (45° C. for 2 hours), and filtered, to yield a drug concentration of 9.9 mg/mL.
A similar solution containing 20% cyclodextrin was prepared by dissolving 20 g of hydroxypropyl-β-cyclodextrin in a 100 mL of buffer (10 mM histidine and 15 mM NaCl). The final osmolality was 199 mOsm/kg (Wescor Osmometer) and the pH was 6.8. Drug (RWJ-425457) was added to the cyclodextrin solution, incubated (45° C. for 2 hours) and filtered, to yield a drug concentration of 4.8 mg/mL.
A liposome formulation with no cholesterol, formulation no. 11, was also prepared as follows. A lipid mixture of HSPC/mPEG-DSPE 95:5 mol/mol (11.3 g HSPC and 2.1 g mPEG-DSPE) was solubilized in 10 mL ethanol at about 65 ° C. A 50% hydroxypropyl-β-cyclodextrin solution was made by solubilizing 50 g of the cyclodextrin in a total volume of 100 mL water. The osmolality was 720 mOsm/kg and the pH was 7.4. In a separate container 1.004 g of drug (RWJ416457) was placed in 100 mL of the 50 w/v % cyclodextrin solution. The mixture was stirred for 1 hour at 45° C. and then 3 hours at room temperature followed by filtration to removw any un-dissolved drug in the solution. The final drug concentration assayed by HPLC was 7.58 mg/mL and the osmolality of the hydration medium was 771 mOsm/kg. The lipid solution was then mixed with 90 mL of the drug/cyclodextrin solution (pre-warmed to 65° C.) followed by stirring at 65° C. for 1 hour to form a suspension of liposomes, identified as formulation no. 11.
A 50% hydroxypropyl-β-cyclodextrin solution was made by solubilizing 50.0 g of the cyclodextrin in a total volume of 100 mL water. The final osmolality was 720 mOsm/kg (Wescor Osmometer) and the pH was 7.4. In a separate container 1.004 g of drug (RWJ416457) was placed in 100 mL of the 50 w/v % cyclodextrin solution. The mixture was stirred for 4 hours at room temperature followed by filtration to remove any drug in the external solution. The final drug concentration assayed by HPLC was 7.58 mg/mL and osmolality was 771 mOsm/kg.

Compound: 2-Hydroxypropyl-β-cyclodextrin
Solubility in water [1]: >600000 µg/mL

Solubility of RWJ-416457 ([2]; Sample 1, pH 8.54, HP-β-CD 40%, 3 days RT, Filter): 8130 µg/mL | Solubility of RWJ-416457 ([2]; Sample 2, pH 8.54, HP-β-CD 40%, 45° C. 2 hrs + 3 days RT, Filter): 9460 µg/mL | Solubility of RWJ-416457 ([2]; Sample 2, pH 8.54, HP-β-CD 40%, 45° C. 2 hrs, Centrifuge): 9370 µg/mL | Solubility of RWJ-416457 ([2]; Sample 2, pH 8.54, HP-β-CD 40%, 45° C. 2 hrs, Filter): 9260 µg/mL | Solubility of RWJ-416457 ([2]; Sample 3, pH 3.21, HP-β-CD 40%, 3 days RT, Filter): 7600 µg/mL | Solubility of RWJ-416457 ([2]; Sample 4, pH 3.21, HP-β-CD 40%, 45° C. 2 hrs + 3 days RT, Filter): 9080 µg/mL | Solubility of RWJ-416457 ([2]; Sample 4, pH 3.21, HP-β-CD 40%, 45° C. 2 hrs, Centrifuge): 9230 µg/mL | Solubility of RWJ-416457 ([2]; Sample 4, pH 3.21, HP-β-CD 40%, 45° C. 2 hrs, Filter): 9160 µg/mL | Solubility of RWJ-416457 ([2]; Sample 5, pH 4.58, HP-β-CD 40%, 3 days RT, Filter): 7210 µg/mL | Solubility of RWJ-416457 ([2]; Sample 6, pH 4.58, HP-β-CD 40%, 45° C. 2 hrs + 3 days RT, Filter): 9100 µg/mL | Solubility of RWJ-416457 ([2]; Sample 6, pH 4.58, HP-β-CD 40%, 45° C. 2 hrs, Centrifuge): 9170 µg/mL | Solubility of RWJ-416457 ([2]; Sample 6, pH 4.58, HP-β-CD 40%, 45° C. 2 hrs, Filter): 9160 µg/mL | Solubility of RWJ-416457 ([2]; Sample 7, pH 6.94, SBE-β-CD 20%, 45° C. 2 hrs + 3 days RT, Filter): 4450 µg/mL | Solubility of RWJ-416457 ([2]; Sample 7, pH 6.94, SBE-β-CD 20%, 45° C. 2 hrs, Centrifuge): 4750 µg/mL | Solubility of RWJ-416457 ([2]; Sample 7, pH 6.94, SBE-β-CD 20%, 45° C. 2 hrs, Filter): 4550 µg/mL | drug solubility ([2]; in 20% sulfobutylether-β-cyclodextrin (summary of Example 1A)): above 4.5 mg/mL | solubility ([2]; in 20 w/v % sulfobutylether-β-cyclodextrin at 45° C.): about 4.5 mg/mL | drug solubility ([2]; in 40 w/v % hydroxypropyl-β-cyclodextrin (summary of Example 1A)): above 9 mg/mL | solubility ([2]; in 40 w/v % hydroxypropyl-β-cyclodextrin at 45° C.): about 9.1 mg/mL | solubility ([2]; in 40 w/v % hydroxypropyl-β-cyclodextrin at room temperature): about 7.6 mg/mL | drug concentration of filtered cyclodextrin solution ([3]; 20% hydroxypropyl-β-cyclodextrin): 4800 µg/mL | drug concentration of filtered cyclodextrin solution ([3]; 30% hydroxypropyl-β-cyclodextrin): 9900 µg/mL | final drug concentration assayed by HPLC ([3]; stirred 1 hour at 45° C. then 3 hours at room temperature): 7.58 mg/mL | final drug concentration assayed by HPLC ([3]; stirred 4 hours at room temperature): 7.58 mg/mL
Compound: CC(=O)NC[C@H]1CN(c2ccc(N3Cc4cn(C)nc4C3)c(F)c2)C(=O)O1 [RWJ-416457]

Compound: 2-Hydroxypropyl-γ-cyclodextrin
Solubility in water [1]: >500000 µg/mL

Compound: OC[C@H]1O[C@@H]2O[C@H]3[C@H](O)[C@@H](O)[C@@H](O[C@H]4[C@H](O)[C@@H](O)[C@@H](O[C@H]5[C@H](O)[C@@H](O)[C@@H](O[C@H]6[C@H](O)[C@@H](O)[C@@H](O[C@H]7[C@H](O)[C@@H](O)[C@@H](O[C@H]8[C@H](O)[C@@H](O)[C@@H](O[C@H]9[C@H](O)[C@@H](O)[C@@H](O[C@H]%10[C@H](O)[C@@H](O)[C@@H](O[C@H]1[C@H](O)[C@H]2O)O[C@@H]%10CO)O[C@@H]9CO)O[C@@H]8CO)O[C@@H]7CO)O[C@@H]6CO)O[C@@H]5CO)O[C@@H]4CO)O[C@@H]3CO [δ-cyclodextrin]
water solubility (at 25° C., g/100 mL) ([1]; at 25° C.): 8.19 g/100 mL

Compound: Randomly Methylated β-cyclodextrin
Solubility in water [1]: >500000 µg/mL

Compound: β-Cyclodextrin sulfobutyl ether sodium salt
Solubility in water [1]: >500000 µg/mL
